Assay: xn = mol fraction of the nth substance listed
Conditions: 303.15 K, Liquid, Vibrating tube method

COC(=O)OC [dimethyl carbonate] + CCO
mass density [kg/m3]
Conditions | 5000 kPa | 10000 kPa | 15000 kPa | 20000 kPa | 25000 kPa | 30000 kPa
x1 = 0.0252 | – | 799.09 | 803.19 | 807.07 | 810.85 | 814.45
x1 = 0.0506 | – | 808.54 | 812.68 | 816.57 | 820.4 | 824.05
x1 = 0.0757 | – | 817.69 | 821.83 | 825.78 | 829.67 | 833.32
x1 = 0.1003 | 822.15 | 826.46 | 830.66 | 834.61 | 838.5 | 842.15
x1 = 0.1508 | 839.75 | 844.12 | 848.37 | 852.39 | 856.28 | 859.99
x1 = 0.2 | 856.29 | 860.68 | 864.98 | 869.06 | 873.01 | 876.77
x1 = 0.2547 | 874.18 | 878.59 | 882.88 | 886.98 | 890.99 | 894.76
x1 = 0.3002 | 888.57 | 893.03 | 897.33 | 901.44 | 905.46 | 909.28
x1 = 0.3498 | 903.81 | 908.28 | 912.64 | 916.76 | 920.83 | 924.6
x1 = 0.4 | 918.72 | 923.21 | 927.61 | 931.75 | 935.83 | 939.65
x1 = 0.449 | 932.82 | 937.32 | 941.72 | 945.87 | 949.95 | 953.78
x1 = 0.4996 | 946.83 | 951.34 | 955.75 | 959.95 | 964.05 | 967.88
x1 = 0.5507 | 960.51 | 965.03 | 969.44 | 973.66 | 977.76 | 981.64
x1 = 0.6005 | 973.37 | 977.9 | 982.31 | 986.54 | 990.65 | 994.54
x1 = 0.6455 | 984.57 | 989.11 | 993.57 | 997.8 | 1001.97 | 1005.86
x1 = 0.6931 | 996.02 | 1000.62 | 1005.08 | 1009.33 | 1013.44 | 1017.34
x1 = 0.7502 | 1009.26 | 1013.82 | 1018.28 | 1022.54 | 1026.71 | 1030.61
x1 = 0.8009 | 1020.59 | 1025.15 | 1029.62 | 1033.88 | 1038.07 | 1041.97
x1 = 0.8505 | 1031.28 | 1035.85 | 1040.32 | 1044.59 | 1048.83 | –
x1 = 0.9008 | 1041.74 | 1046.31 | 1050.81 | 1055.12 | 1059.33 | –
x1 = 0.9255 | 1046.76 | 1051.32 | 1055.83 | 1060.15 | 1064.37 | –
x1 = 0.9477 | 1051.21 | 1055.79 | 1060.28 | 1064.6 | 1068.85 | –
x1 = 0.9735 | 1056.32 | 1060.89 | 1065.37 | 1069.67 | 1073.92 | –
x1 = 1 | 1061.47 | 1066.02 | 1070.49 | 1074.79 | 1078.99 | –

From the NIST ThermoML archive (doi:10.1016/j.jct.2019.02.011)
